The record followed here is paper PMC5288202, “Simultaneous inhibition of Vps34 kinase would enhance PI3Kδ inhibitor cytotoxicity in the B-cell malignancies” (Oncotarget, 2016).

For one data set, the system named is protein kinases. Nature of the data set: DiscoveRx's KinomeScan selectivity profile. The class given is binding. The note with it: 1 μM.
In data set [1] the test system is LC3B puncta in HeLa cells. Nature of the data set: Immunofluorescence of LC3B puncta. To be noted: 16 hours. Type of data set: cell-based. The method, then:
(§1) HeLa cells were treated with different concentrations of inhibitors for 16 hours. For all immunofluorescence experiments, cells were fixed in -20 °C methanol for 5 minutes or 3.7% (v/v) formaldehyde in phosphate-buffered saline (PBS) for 20 minutes. For LC3B staining, cells were fixed in -20 °C methanol. For EEA1 and LAMP1 staining, cells were fixed in PBS+ formaldehyde. Cells were then permeabilized with TBSTx (0.1% Triton X-100), blocked in AbDil (TBSTx + 2% BSA + 0.1% NaN3), and probed with primary and secondary antibodies diluted in AbDil. Cells were rinsed thoroughly with TBSTx and mounted by anti-fade prolong Gold with DAPI. Images were taken using a Leica DMI4000B fluorescent microscope. All experiments were repeated at least three times). […] Cells were lysed in lysis buffer. P62, LC3B, and GAPDH antibodies were used for immunoblotting.

Data set [2] deals with LAMP1 localization in HeLa cells. Description: Immunofluorescence of LAMP1 localization. The class given is cell-based. The method, then:
as §1

The target in the next data set is T1, VPS34 (Homo sapiens, UniProt Q8NEB9).
T1 construct: purchased Invitrogen
Description: Kinase kinetic assay with varied ATP. Type of data set: biochemical. To be noted: varied ATP concentrations. The method, then:
Kinetic analyses of PI3Kδ and Vps34 were performed using a luminometric kinase assay varying the concentration of ATP using the ADP-Glo reagents (Promega). […] After 60 min incubation at RT, varied concentrations of ATP and 0.1 mM substrate (PIP2:PS for PI3Kδ, PI:PS for Vps34) were added and incubated for 60 min at 37° C. The overall rate of reaction was determined as the slope of the decreasing phase of the reaction. Each data point was collected in duplicate and kinetic parameters were obtained using Prism 5.0 (GraphPad Software, San Diego, CA).

The next data set has as its system U937. Description: Anti-proliferative effect. The class given is cell-based. The note with it: Homo sapiens, U-937, read-out: GI50 U937.
The next data set deals with CMK. Nature of the data set: Anti-proliferative effect. The class given is cell-based. The note with it: Homo sapiens, read-out: GI50 CMK.
A further data set relates to SKM-1. Nature of the data set: Anti-proliferative effect. To be noted: Homo sapiens, SKM-1, read-out: GI50 SKM-1. Type of data set: cell-based.
For a further data set, the system named is HEL. Description: Anti-proliferative effect. The class given is cell-based. The note with it: Homo sapiens, read-out: GI50 HEL.
A further data set has as its system HT. Nature of the data set: Anti-proliferative effect. The class given is cell-based. To be noted: Homo sapiens, read-out: GI50 HT.
In the next data set the test system is Ramos. Description: Anti-proliferative effect. To be noted: Homo sapiens, read-out: GI50 Ramos. The class given is cell-based.
For another data set, the system named is Namalwa. Nature of the data set: Anti-proliferative effect. Type of data set: cell-based. The note with it: read-out: GI50 Namalwa.
Data set [3] relates to MEC-2. Nature of the data set: Anti-proliferative effect. Type of data set: cell-based. The note with it: MEC2, read-out: GI50 MEC-2.
In a further data set the test system is MV4-11. Nature of the data set: Colony formation (colonogenic assay). Type of data set: cell-based. The note with it: Homo sapiens, AML.
The test system of another data set is primary CLL cells. Nature of the data set: Growth of patient primary cells. Type of data set: cell-based. The note with it: CLL cell, 72 hours, read-out: cell proliferation inhibited. An excerpt:
Peripheral blood mononuclear cells (PBMCs) from individuals with CLL were isolated by density centrifugation through Ficoll and frozen for each subject. Those subjects with low white counts whose CLL cell purity was expected to be < 85% underwent B cell isolation using RosetteSep. The protocol was approved by the Dana-Farber Harvard Cancer Center Institutional Review Board and all subjects signed written informed consent prior to participation.

Data set [4] concerns FLT3-ITD positive primary AML cells. Description: Growth of AML primagraft cells ex vivo. Type of data set: cell-based. The note with it: 72 hours. The method, then:
Mononuclear cells were isolated from AML patients. Mononuclear cells were isolated by density gradient centrifugation through Ficoll-Plaque Plus (Amersham Pharmacia Biotech AB, Uppsala, Sweden) at 2000 rpm for 30 minutes, followed by two washes in 1X PBS. Freeze-thawed cells were then cultured in liquid culture (DMEM, supplemented with 20% FBS). All blood and bone marrow samples from AML patients were obtained through written consent under approval of the Dana Farber Cancer Institute Institutional Review Board. The ethics committees approved the consent procedure.

Data set [5] relates to MV4-11 cell-inoculated xenograft. Nature of the data set: MV4-11 xenograft tumor model. The class given is in vivo. An excerpt:
Six week old female nu/nu mice were purchased from the Shanghai Experimental Center, Chinese Science Academy (Shanghai). All animals were maintained in a specific pathogen-free facility and used according to the animal care regulations of Hefei Institutes of Physical Science Chinese Academy of Sciences, and all efforts were made to minimize animal suffering. To obtain an […] in the mice, cells were harvested during exponential growth. 7 million MV4-11 cells in PBS were suspended in a 1:1 mixture with Matrigel (BD Biosciences) and injected into the subcutaneous space on the right flank of nu/nu mice. Daily intraperitoneal injection was initiated when MV4-11 tumors had reached a size of 200 to 400 mm^3. Animals were then randomized into treatment groups of 5 mice each for efficacy studies. […] Body weight and tumor growth were measured daily after PI3KD/V-IN-01 treatment. Tumor volumes were calculated as follows: tumor volume (mm^3)=[(W^2× L)/2] in which width (W) is defined as the smaller of the two measurements and length(L) is defined as the larger of the two measurements.
TUNEL staining was performed using the POD in Situ Cell Death Detection kit (Roche, USA). Sections were deparaffinized in xylene, rehydrated in decreasing concentrations of ethanol, then treated by nuclease free Proteinase K for 15 min at room temperature before endogenous peroxidase was blocked in 3% H2O2 in methanol. Terminal deoxynucleotidyl transferase (TdT) in reaction buffer was applied to sections for 1h at 37°C. Following washes, the slides were covered by converter-POD solution for 30 min at 37°C. Apoptotic cells were detected after incubation in the 3, 3′-diaminobenzidine (DAB) chromogen (Beyotime Biotechnology) for approximately 8 min and slides were counterstained with hematoxylin.
Incubations with primary antibodies lasted overnight at 4°C. The secondary detection system was used to visualize antibody binding. Staining was developed with DAB; slides were counterstained with hematoxylin, dehydrated and mounted.

Data set [6] concerns MEC-2. Nature of the data set: Induction of apoptosis (PARP cleavage). Type of data set: cell-based. The note with it: MEC-2, evident at 3 μM to 10 μM.
In data set [7] the test system is OCI-AML-3. Description: Induction of apoptosis (PARP cleavage). To be noted: OCI-AML-3, concentrations up to 10 μM. The class given is cell-based.
The test system of data set [8] is MEC-2. Description: Autophagy markers LC3BII and p62 (immunoblotting). The class given is cell-based. A general note: In western blotting, separated proteins are transferred to a membrane and probed.
The test system of data set [9] is OCI-AML-3. Nature of the data set: Cell cycle analysis. The class given is cell-based. To be noted: OCI-AML-3, 48 h treatment.
Setting [10] is: immunohistochemistry, MV4-11 xenograft.

A value given as a limit tells only on which side of the number the result lay.

T1 sequence (Q8NEB9 whole entry): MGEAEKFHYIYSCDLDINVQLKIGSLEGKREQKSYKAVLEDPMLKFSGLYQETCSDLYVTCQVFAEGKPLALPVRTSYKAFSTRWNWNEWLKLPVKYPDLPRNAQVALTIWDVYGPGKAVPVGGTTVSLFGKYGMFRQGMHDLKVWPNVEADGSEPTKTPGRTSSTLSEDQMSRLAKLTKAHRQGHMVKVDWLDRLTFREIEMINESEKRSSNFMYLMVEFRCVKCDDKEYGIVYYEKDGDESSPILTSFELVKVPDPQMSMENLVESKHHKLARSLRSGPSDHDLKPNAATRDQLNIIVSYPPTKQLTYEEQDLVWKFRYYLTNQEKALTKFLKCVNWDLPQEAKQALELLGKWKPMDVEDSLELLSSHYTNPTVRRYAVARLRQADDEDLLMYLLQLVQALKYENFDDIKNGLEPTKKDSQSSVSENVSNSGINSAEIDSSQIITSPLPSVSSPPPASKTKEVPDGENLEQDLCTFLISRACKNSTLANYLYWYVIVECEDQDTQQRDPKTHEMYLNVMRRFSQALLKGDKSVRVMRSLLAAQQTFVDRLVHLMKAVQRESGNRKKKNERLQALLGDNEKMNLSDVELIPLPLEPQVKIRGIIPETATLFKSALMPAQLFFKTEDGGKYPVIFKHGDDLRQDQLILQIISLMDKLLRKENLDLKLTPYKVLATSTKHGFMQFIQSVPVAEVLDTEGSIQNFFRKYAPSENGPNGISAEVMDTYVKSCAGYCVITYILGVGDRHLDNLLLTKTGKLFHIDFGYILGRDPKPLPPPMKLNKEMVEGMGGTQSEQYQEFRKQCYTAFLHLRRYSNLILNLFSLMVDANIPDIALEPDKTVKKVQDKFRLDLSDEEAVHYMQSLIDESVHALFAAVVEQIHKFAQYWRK

For `Cc1nc(NC(=O)CN)sc1-c1cnc(Cl)c(NS(=O)(=O)c2ccc(C(C)(C)C)cc2)c1` [PI3KD/V-IN-01, 2-amino-N-(5-(5-(4-tert-butylphenylsulfonamido)-6-chloropyridin-3-yl)-4-methylthiazol-2-yl)acetamide], the “S score (5)” value in the data set on protein kinases came out at 0.00. Moreover, the “Effect on LC3B puncta” value in data set [1] is “increased LC3B puncta”. In addition, in data set [2], the “Effect on lysosome marker LAMP1 localization” value is “affected”. At VPS34, the “Mode of inhibition against Vps34” value is given as “ATP competitive inhibitor”. The GI50 (usually the concentration at which growth is held to half of that of the control) with U937 was 2200 nM; with CMK it was 2000 nM; in the data set with SKM-1, 1000 nM; in the data set on HEL it was greater than 10000 nM; in the data set with HT, 1900 nM; with Ramos it was 5400 nM. The values for the GI50 in the data set with Namalwa and with MEC-2 [3] were 1300 nM and 2400 nM, respectively. For the same compound, it took 124 nM to reach a half-maximal effect with MV4-11 (EC50). Further, the figures for the inhibition at 1 µM (in the data set with primary CLL cells; in data set [4]) were roughly 50% and greater than 85%, respectively. Moreover, in data set [5] (50 mg/kg/day administered intraperitoneal, MV4-11 xenograft mice), the “TGI (Tumor growth inhibition)” value is 86.8%. In addition, the “effect on body weight” value in data set [5] (50 mg/kg/day, MV4-11 xenograft mice) is “no apparent effects on body weight”. Also, the “apoptosis in tumor tissue (TUNEL stain)” value in [5] (setting [10]) is given as “dose-dependently increased”. For the same compound, the “cell proliferation in tumor tissue (Ki67 stain)” value in data set [5] (setting [10]) is recorded as “dose-dependently inhibited”. Besides, the values for the induction of apoptosis entry in the data set on MEC-2 [6] and in the data set with OCI-AML-3 [7] were “only a modest induction of apoptosis” and “no apoptosis was observed”, respectively. Moreover, the “levels of the autophagy markers, LC3BII and p62” value with MEC-2 [8] is recorded as “concentration-dependent increase”. For the same compound, in the data set on OCI-AML-3 [9], the cell cycle progression result is recorded as “arrested in the G0/G1 phase”.
